Key:
[1] = system: Cos monkey kidney cancer cells; experiment: Cos cell density with peptide; type: cell-based; settings: even at 100 μM; 2 or 4 days; no endogenous sGCα1
Experimental: FIG. 17B: Cos monkey kidney cancer cells were grown for 2 or 4 days in the presence of increasing concentration of Peptide A-8R [SEQ ID NO: 1] or vehicle and then cell density was measured.

[2] = system: PC-3 prostate cancer cells; experiment: PC-3 cell density with peptide; type: cell-based; settings: even at 100 μM; 3 or 6 days; no endogenous sGCα1
Experimental: FIG. 17A: PC-3 prostate cancer cells were grown for 3 or 6 days in the presence of increasing concentration of Peptide A-8R [SEQ ID NO: 1] or vehicle and then cell density was measured.

[3] = system: LNCaP cell culture; type: cell-based
Source text: In one non-limiting example, Peptide A-8R [SEQ ID NO: 1] can be truncated to a smaller peptide that retains the same type of biological activity profile. In certain embodiments, truncating Peptide A-8R [SEQ ID NO: 1] results in greater potency upon conversion of some of the pharmacophore functionalities to peptidomimetic groups that can, in turn, enhance key interactions by lowering the net binding energy. In one experiment, Peptide A-8R [SEQ ID NO: 1] was divided into two parts, using the central proline residue as the division point. […] A minimum number of amino acids desired for cytotoxicity was then identified. […] The following Peptide A truncated and derivative probes were synthesized and evaluated for their effect on cytotoxicity after 3- and 6-day exposures:
The following table lists cell culture data for truncated Peptide A peptides. The amino acid sequences and IC50 values in μM concentrations depict cytotoxicity after 3- and 6-day exposures (“NotA” means not active). “8R” [SEQ ID NO: 6] signifies that 8 arginines are present on the carboxy terminus to mediate membrane translocation. The data has shown that the 8R terminus [SEQ ID NO: 6] can be either as the free carboxy (—OH) or amide (—NH2) with no alteration of permeation or observed activity.
The table below lists LNCaP cell culture data for various Peptide A derivatives, displaying the observed IC50 values in μM concentrations after 3- and 6-day exposures.

[4] = system: LNCaP xenograft tumors; experiment: LNCaP xenograft tumors in nude mice, intratumoral injection; type: in vivo
Experimental: FIG. 20: Peptide A-8R [SEQ ID NO: 1] inhibits the growth of LNCaP prostate xenograft tumors. LNCaP xenograft tumors were grown in nude mice to a size of 200-400 cubic mm and then treated with daily intratumoral injections of either Peptide A-8R [SEQ ID NO: 1] (80 mg/kg of animal) or Vehicle (DMSO) for seven days, after which the tumors were left untreated and allowed to grow for an additional 2-3 weeks. Each point represents the average tumor size of three animals plus/minus the standard deviations. Note that open squares or circles represent no treatment of either Peptide A-8R [SEQ ID NO: 1] or vehicle.
This was analyzed using LNCaP xenograft tumors established in nude mice and direct injection of Peptide A-8R [SEQ ID NO: 1] (FIG. 20).

[5] = system: C81 (androgen-refractory LNCaP) cells; experiment: C81 cell density with peptide; type: cell-based; settings: 10 μM peptide; 1-8 hrs
Experimental: FIG. 15B: C81 (androgen-refractory LNCaP) cells were grown for 1-8 hrs in the presence of 10 μM Peptide A-8R [SEQ ID NO: 1] or vehicle and then cell density was measured.
To measure how rapid the cytotoxic effect of Peptide A-8R [SEQ ID NO: 1] occurs, LNCaP cells were treated with 10 μM peptide and incubated for 1-8 hrs. […] Using the same conditions, C81 cells were used to study the peptide effect on hormone-refractory prostate cancer cells.

## Ac-TFCKAFPFHIIRRRRRRRR-OH [Peptide A-8R]
[1]
  effect on Cos cells: little to no effect
[2]
  effect on PC-3 cells: little to no effect
[3]
  Cytotoxicity: Yes
[4]; 80 mg/kg daily intratumoral, seven daily injections
  tumor growth during treatment: strongly inhibited tumor growth and actually caused tumor regression
[4]; additional 2-3 weeks untreated, versus Vehicle
  tumor growth after stopping peptide injection: grew significantly more slowly
[5]
  killing of C81 cells: very effective at killing

Reference: US9546196B2, “Compositions and methods of treatment of cancers” (The University of Toledo, priority 2009, dated 2017)
